The subject of data set [1] is SU-DIPG-XIII FL cells. The data set can be described thus: Matrigel invasion assay (Boyden chamber) of DIPG cells. It is filed as cell-based, human. As to conditions: 72 hours; for DIPG invasion toward SVZ hNPC CM: inhibitor added to the cells in the top insert, dose curve, vehicle DMSO control. As to the method:
To test for chemoattraction and invasion toward neural precursor cell conditioned media or another candidate chemoattractant, a single-cell suspension of 100,000 DIPG cells in Tumor Stem Media (TSM) base (with B27 (−A) and heparin, without growth factors) was seeded in the top inserts of BioCoat growth factor reduced Matrigel invasion chambers (Corning, Bedford, Mass.), after rehydration of the inserts. Chemoattractant media was added to the bottom of the chamber. All conditions were plated in triplicate. After 72 hours, media was aspirated, and the non-invading cells on top of the layer of Matrigel were scrubbed off. The invading cells were fixed in 4% paraformaldehyde and then stained with 0.1% crystal violet in 10% methanol in distilled water. The number of invading cells was quantified by the intensity of the crystal violet dye on the invading side of the Matrigel. The dye was collected in 10% acetic acid, and absorbance was measured at 595 nm.
To test the ROCK or HSP90 inhibitors in the Matrigel invasion assay, the inhibitors were added to the suspension of glioma cells in TSM base (with B27 (−A) and heparin) seeded in the top inserts at the appropriate concentrations, and neural precursor cell conditioned media was plated in the bottom chambers. The rest of the procedure was performed as described above.

Data set [2] relates to SU-DIPG-XIII FL cells. The data set can be described thus: CellTiter-Glo cell viability assay. It counts as cell-based, human. As to conditions: increasing doses of inhibitor; 72 hours. As to the method:
To assess cell viability, 5,000 DIPG cells per well were seeded in base media or full growth media in a 96-well plate. Inhibitors were added at the appropriate concentrations. After 72 hours, CellTiter-Glo reagent 2.0 was added at a 1:1 ratio, and cells were lysed. Luminescence was measured after stabilization of signal for 10 minutes at room temperature.
For orientation: Cellular ATP, detected with luciferase, serves as a proxy for viable cell number.

For data set [3] the following is noted: rodent models (Egorin et al. 2001); cited from earlier work.
Data set [4] deals with SU-DIPG-XIII FL cells. The data set can be described thus: shRNA-expressing lentivirus injected into the SVZ of orthotopically xenografted mice. As to conditions: vs scrambled shRNA control; for DIPG cells invading the SVZ: 16 weeks following pontine xenograft. It is filed as in vivo, NSG mice. As to the method: NSG mice at age P34-36 were orthotopically xenografted with SU-DIPG-XIII frontal lobe CMV-GFP-luciferase cells, in a similar procedure to as previously described (Grasso et al., supra; Venkatesh et al. (2015) Cell 161, 803-816). Briefly, a single-cell suspension of SU-DIPG-XIII frontal lobe CMV-GFP-luciferase cells at passage 16-19 was prepared in sterile HBSS immediately before beginning the xenograft procedure. 600,000 cells in 3 μL were stereotactically injected into the pons of the left hemisphere of NSG mice, through a 31-gauge burr hole. Stereotactic coordinates used were: 1 mm lateral to midline, 0.8 mm posterior to lambda suture, and 5 mm deep. Cells were injected at a rate of 0.4 μL/min using a digital pump and a 31-gauge Hamilton syringe. After infusion of cells, the syringe needle was kept in place for 2 minutes, and then withdrawn manually at a rate of 0.875 mm/min to minimize the backflow of cells.
(§1) Mice used for shRNA lentivirus studies received shRNA-expressing lentivirus in the SVZ at P27-29 and DIPG cells in the left pons at P34-36. For lentiviral injections, 2 μL of shRNA-expressing lentivirus were stereotactically injected into the SVZ. Stereotactic coordinates used were: 1.3 mm lateral to midline, 0.1 mm posterior to bregma suture, and 2 mm deep. Virus was injected and the needle was withdrawn according to the same procedure as described above.
Mice were imaged using an IVIS Spectrum to ensure tumor engraftment and monitor tumor size. Mice were anesthetized under 1% isoflurane, intraperitoneally injected with luciferin (15 mg/kg), and imaged for bioluminescence every minute until the peak total flux was reached.
For quantification of DIPG invasion of the SVZ after knock down of targets in the SVZ, 5 NSG mice per group were injected with shRNA-expressing lentivirus in bilateral SVZs and orthotopically xenografted with SU-DIPG-XIII FL in the left pons. Mice were perfused for analysis 16 weeks after xenograft. A 1:6 series of coronal slices from each mouse brain was immunostained and imaged, and the number of GFP^+ HNA^+ glioma cells within 200 μm of the lateral ventricles in all slices containing lateral ventricles was manually counted.
For quantification of neural stem/precursor cells in the SVZ after knock down of PTN in the SVZ, a 1:6 series of coronal slices from each mouse was immunostained and imaged, and the number of Sox2^+ neural stem/precursor cells in a 20×Z-stack was manually counted. The density of Sox2^+ cells was calculated as cells/mm^3.

The test system of data set [5] is pleiotrophin. The data set can be described thus: Knockdown of pleiotrophin expression in the mouse SVZ. As to conditions: stereotactic injection into the mouse SVZ; vs scrambled shRNA control. It counts as in vivo. As to the method: as §1
Mice were intraperitoneally injected with Avertin (tribromoethanol) for anesthesia, and then transcardially perfused with 20 mL of ice-cold PBS. Brains were dissected out and fixed in 4% paraformaldehyde in PBS overnight at 4° C., and were then transferred to 30% sucrose in PBS for cryoprotection. Brains were embedded in Tissue-Tek O.C.T. (Sakura, Torrance, Calif.). Brains from mice older than P10 were sliced into 40 μm coronal or sagittal sections using a sliding microtome (Microm HM450; Thermo Scientific, Waltham, Mass.). Brains from mice age P0 to P10 were sliced into 25 μm coronal sections using a cryostat (Leica Biosystems CM3050 S; 1058 Wetzlar, Germany). For immunohistochemistry, a 1 in 6 series of 25 μm or 40 μm sections was incubated in blocking solution (3% normal donkey serum, 0.3% Triton X-100 in TBS) at room temperature for 1 hour. […]

These results are taken from patent publication US10550388B2, “Targeting pleiotrophin signaling to limit high-grade glioma invasion” (The Board of Trustees of the Leland Stanford Junior …, priority 2017, dated 2020).

In the case of `CCn1c(-c2nonc2N)nc2cnc(Oc3cccc(NC(=O)c4ccc(OCCN5CCOCC5)cc4)c3)cc21` [GSK 269962A, reference compound], the “DIPG invasion toward SVZ hNPC CM” value in data set [1] is recorded as “decreased DIPG invasion toward SVZ hNPC CM in a dose-dependent manner”. Besides, the “cell viability of DIPG cells” value in data set [2] is “do not affect cell viability at sub-μM concentrations”.
`C=CCNC1=C2C[C@@H](C)C[C@H](OC)[C@H](O)[C@@H](C)/C=C(\C)[C@H](OC(N)=O)[C@@H](OC)/C=C\C=C(/C)C(=O)NC(=CC1=O)C2=O` [17-AAG, tanespimycin, reference compound]: the “concentrations at which invasion toward SVZ hNPC CM is decreased” value in data set [1] (in vitro, inhibitor in the top insert) is listed as “above 1 μM”. For the same compound, in data set [3], the Brain penetration result is on record as “less than 1 μM”.
With `CC1=C(C(=O)Nc2cc3cn[nH]c3cc2F)C(c2ccc(C(F)(F)F)cc2)CC(=O)N1` (stereo not drawn) [GSK 429286, reference compound], in data set [1], the “DIPG invasion toward SVZ hNPC CM” value is recorded as “decreased DIPG invasion toward SVZ hNPC CM in a dose-dependent manner”. Also, the “cell viability of DIPG cells” value in data set [2] is “do not affect cell viability at sub-μM concentrations”.
“sh-Ptn: lentivirus-expressed shRNA against mouse PTN, Sigma TRCNO000071676, SEQ ID NO: 8 (CCGGGCACAATGCTGACTGTCAGAACTCGAGTTCTGACAGTCAGCATTGTGCTTTTTG)”: in data set [4], the “DIPG cells invading the SVZ” value is listed as “fewer orthotopically xenografted GFP^+ HNA^+ SU-DIPG-XIII FL cells invaded the SVZ”, the “density of Sox2+ neural stem/precursor cells in the SVZ” value was “equivalent” and the “tumor engraftment (bioluminescent flux)” value is on record as “equivalent”. For the same compound, in data set [4] (listed as shRNA targeting Ptn), the “DIPG cells invading the SVZ” value is recorded as “fewer DIPG cells invaded the SVZ”. The “density of Sox2+ neural stem/precursor cells in the SVZ” value in data set [4] (listed as Ptn shRNA) is on record as “equivalent numbers of Sox2^+ NPCs”. Moreover, in data set [5], the “knockdown of pleiotrophin expression” value is “effective knockdown of pleiotrophin expression”.
